Assay results from article PMC8695704 (RSC Advances, 2021).

Molecular target: T1, recombinant human S-COMT (Homo sapiens, UniProt P21964)
T1 sequence (P21964 1-221 isoform P21964-2): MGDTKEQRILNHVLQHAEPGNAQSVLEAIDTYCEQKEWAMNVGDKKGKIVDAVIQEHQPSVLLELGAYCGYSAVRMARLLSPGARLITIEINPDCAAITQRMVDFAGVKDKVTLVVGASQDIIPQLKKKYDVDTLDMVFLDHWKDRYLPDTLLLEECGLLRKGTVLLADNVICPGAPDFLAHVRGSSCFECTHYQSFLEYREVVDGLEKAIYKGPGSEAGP
Assay: COMT inhibition assay with the fluorescent probe substrate 3-BTD
Assay type: biochemical
Conditions: IC50, 3-BTD as substrate

| IC50 [µM] | Structure (SMILES) |
| --- | --- |
| 0.221 ± 0.032 | O=C(O)[C@H]1O[C@@H](Oc2cc3oc(-c4ccc(O)cc4)cc(=O)c3c(O)c2O)[C@H](O)[C@@H](O)[C@@H]1O [Scutellarin, scutellarin] |
| 24.1 ± 4.96 | COc1c(O)cc(O)c2c(=O)cc(-c3ccccc3)oc12 [Wogonin, wogonin] |
